Among the test systems are A549 NSCLC; EKVX NSCLC; HCC-2998 colon; HL-60(TB) leukemia; HOP-62 NSCLC; IGROV1 ovarian; M14 melanoma; MCF7 breast; NCI-H23 lung; PC-3 prostate; SF-295 CNS; SN12C renal; U251 CNS.
Holding throughout (assay): NCI tumour cell line growth inhibition, 48 h

Molecules are shown by their SMILES.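 How tested: cells in 96-well plates exposed to compound for 48 hours at five concentrations. GI50 marks 50% less growth. TGI is the concentration that stops growth completely.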 Bounds are passed on as bounds.

Take `CC(=O)O[C@H]1[C@@H](OC2CCCC2(c2ccccc2)c2ccccc2)O[N+]([O-])=C[C@@]12COCc1cc3c(cc12)OCO3` (some centres not stated): the TGI in the assay with A549 NSCLC is over 45.4 µM; in the assay on EKVX NSCLC, over 25.7 µM; in the assay on HCC-2998 colon it was 11.9 µM; in the assay on HL-60(TB) leukemia, over 100 µM; in the assay with HOP-62 NSCLC, 7.67 µM; in the assay on IGROV1 ovarian, 22.2 µM. In addition, the TGI in the assay with M14 melanoma is 37.2 µM; in the assay with MCF7 breast, over 45.2 µM; in the assay on NCI-H23 lung, 52.1 µM; with PC-3 prostate, 19.3 µM; with SF-295 CNS, over 25.9 µM; in the assay with SN12C renal, over 39.6 µM. Further, the TGI in the assay with U251 CNS came to 22.6 µM.

`CCOC(=O)/C=C(\C(=O)OCC)n1cnc2c(N)ncnc21`: the TGI in the assay on A549 NSCLC worked out at 32.2 µM; in the assay on EKVX NSCLC it was 30.7 µM; in the assay on HCC-2998 colon, 30.2 µM; in the assay on HL-60(TB) leukemia it was 2.78 µM; with HOP-62 NSCLC it was 39.8 µM; with IGROV1 ovarian, 26.7 µM. The TGI in the assay with M14 melanoma was 22.7 µM; in the assay on MCF7 breast it was 11.9 µM; with NCI-H23 lung, 31.8 µM; in the assay on PC-3 prostate it was 26.1 µM; with SF-295 CNS, 32.1 µM; with SN12C renal it was 10.8 µM. The TGI in the assay on U251 CNS came out at 20.8 µM.

For the compound `CC(=O)N1CC[N+](C)(CCCCN2c3ccccc3Sc3cc(N=[N+]=[N-])ccc32)CC1`, the TGI in the assay with A549 NSCLC, with EKVX NSCLC, with HCC-2998 colon, with HL-60(TB) leukemia, in the assay on HOP-62 NSCLC and in the assay with IGROV1 ovarian was over 100 µM in each case. The TGI with M14 melanoma, in the assay on MCF7 breast, in the assay with NCI-H23 lung, with PC-3 prostate, in the assay with SF-295 CNS and with SN12C renal was over 100 µM in each case. The compound also displayed a TGI in the assay on U251 CNS of over 100 µM.

With `CCOC(=O)NC(NNc1ccc([N+](=O)[O-])cc1[N+](=O)[O-])(C(F)(F)F)C(F)(F)F`, the TGI with A549 NSCLC was over 100 µM; with EKVX NSCLC it was over 100 µM; in the assay with HCC-2998 colon it was over 100 µM; in the assay with HL-60(TB) leukemia, 58.9 µM; with HOP-62 NSCLC it was over 100 µM; in the assay on IGROV1 ovarian it was over 100 µM. Further, the TGI with M14 melanoma, in the assay on MCF7 breast, in the assay with NCI-H23 lung, in the assay on PC-3 prostate, in the assay with SF-295 CNS and in the assay on SN12C renal was over 100 µM in each case. The TGI in the assay with U251 CNS was 64.6 µM.

As for `CCCN1CN(c2ccccc2)C2(CCN(CCCC(=O)c3ccc(F)cc3)CC2)C1=O`, the TGI in the assay with A549 NSCLC came out at 29.8 µM; with EKVX NSCLC, 54.2 µM; with HCC-2998 colon, 20.8 µM; in the assay with HL-60(TB) leukemia, 40.2 µM; with HOP-62 NSCLC, 8.66 µM; in the assay on IGROV1 ovarian, 14.8 µM. Moreover, the TGI with M14 melanoma came out at 25.1 µM; in the assay on MCF7 breast, 11.9 µM; with NCI-H23 lung, 17.3 µM; in the assay on PC-3 prostate it was 27.6 µM; with SF-295 CNS, 24.8 µM; in the assay with SN12C renal, 15.5 µM. In addition, in the assay with U251 CNS, the TGI was 30.7 µM.

`CC(C)/C(Cl)=N\OC(=O)Nc1ccc(F)c([N+](=O)[O-])c1`: the TGI in the assay on A549 NSCLC is 56 µM; in the assay with EKVX NSCLC, 26.5 µM; in the assay on HCC-2998 colon, over 100 µM; with HL-60(TB) leukemia it was 2.85 µM; in the assay on HOP-62 NSCLC it was 32 µM; in the assay with IGROV1 ovarian, 13.5 µM. In addition, the TGI in the assay on M14 melanoma was over 32.4 µM; in the assay with MCF7 breast it was over 58.1 µM; with NCI-H23 lung, 41.2 µM; in the assay on PC-3 prostate, 32.2 µM; in the assay on SF-295 CNS, 37.9 µM; in the assay on SN12C renal it was 16.5 µM. For the same compound, the TGI in the assay with U251 CNS was determined as 31.1 µM.

Take `COc1cc(C2c3[nH]c4ccc(F)cc4c3C[C@H]3COC(=O)N23)cc(OC)c1O` (some centres not stated): the TGI is 28.3 µM in the assay on A549 NSCLC; 92.3 µM with EKVX NSCLC; 28.4 µM in the assay on HCC-2998 colon; 38.1 µM in the assay on HL-60(TB) leukemia; 21.6 µM in the assay with HOP-62 NSCLC; over 100 µM in the assay with IGROV1 ovarian. The TGI with M14 melanoma is 43.8 µM; in the assay on MCF7 breast, over 100 µM; in the assay on NCI-H23 lung it was 18.5 µM; in the assay on PC-3 prostate, over 100 µM; in the assay with SF-295 CNS, 53.8 µM; in the assay on SN12C renal it was 35.5 µM. Besides, in the assay on U251 CNS, the TGI was determined as 25 µM.

Turning to `C=C(CN(C)C)C(=O)c1cc(C)ccc1C`, the TGI was found to be 41.6 µM in the assay on A549 NSCLC; 55.3 µM in the assay with EKVX NSCLC; 29.9 µM with HCC-2998 colon; 0.446 µM in the assay with HL-60(TB) leukemia; 33.8 µM in the assay on HOP-62 NSCLC; 34.7 µM in the assay on IGROV1 ovarian. Besides, the TGI in the assay with M14 melanoma amounted to 7.21 µM; with MCF7 breast, 11.5 µM; with NCI-H23 lung it was 33.4 µM; in the assay with PC-3 prostate, 28.2 µM; in the assay on SF-295 CNS, 34.1 µM; in the assay with SN12C renal, 42.6 µM. In the assay on U251 CNS, this compound showed a TGI of 33.5 µM.

`COc1cc(C=Nc2ccc(S(N)(=O)=O)cc2)cc(OC)c1`: the TGI with A549 NSCLC is over 50 µM; in the assay on EKVX NSCLC, over 50 µM; with HCC-2998 colon, over 50 µM; in the assay with HL-60(TB) leukemia, 36.8 µM; in the assay with HOP-62 NSCLC it was over 50 µM; in the assay with IGROV1 ovarian it was over 50 µM. Besides, the TGI with M14 melanoma, in the assay with MCF7 breast, in the assay with NCI-H23 lung, in the assay with PC-3 prostate, in the assay with SF-295 CNS and in the assay with SN12C renal was over 50 µM each time. Also, in the assay on U251 CNS, the TGI was over 50 µM.

For `COc1cc(/C=C/c2sc3ccccc3[n+]2C)ccc1N(C)C`, the GI50 in the assay with A549 NSCLC is 7.08 µM; in the assay on HL-60(TB) leukemia, 1.75 µM; with IGROV1 ovarian it was 9.14 µM; in the assay with MCF7 breast it was 6.78 µM; in the assay on PC-3 prostate it was 12.8 µM; in the assay on U251 CNS, 8.06 µM. The TGI in the assay with A549 NSCLC is over 100 µM; with EKVX NSCLC it was over 100 µM; in the assay on HCC-2998 colon, 53.4 µM; in the assay with HL-60(TB) leukemia it was 3.88 µM; with HOP-62 NSCLC, 32.8 µM; with IGROV1 ovarian, 22 µM. Also, the TGI is 27.1 µM with M14 melanoma; 19.5 µM with MCF7 breast; 27.7 µM with NCI-H23 lung; 32.3 µM with PC-3 prostate; over 100 µM in the assay on SF-295 CNS; 25.5 µM in the assay on SN12C renal. In addition, in the assay with U251 CNS, the TGI stood at 21.8 µM.

Regarding `O=C(O)CSc1nnc(CCCCCCCCc2nnc(SCC(=O)O)o2)o1`, the TGI in the assay with A549 NSCLC, in the assay with EKVX NSCLC, in the assay on HCC-2998 colon, with HL-60(TB) leukemia, with HOP-62 NSCLC and in the assay on IGROV1 ovarian was over 100 µM in each case. The TGI with M14 melanoma, in the assay with MCF7 breast, with NCI-H23 lung, with PC-3 prostate, in the assay on SF-295 CNS and in the assay with SN12C renal was over 100 µM each time. In addition, the TGI in the assay with U251 CNS is over 100 µM.

Regarding `COCC(=O)OC1CCn2c1nc1c2C(=O)C(C)=C(NC(C)=O)C1=N` (configuration not stated), the TGI is 42.5 µM with A549 NSCLC; 25.3 µM in the assay on EKVX NSCLC; 27.7 µM in the assay with HCC-2998 colon; 4.54 µM with HL-60(TB) leukemia; 29.2 µM with HOP-62 NSCLC; 24.2 µM with IGROV1 ovarian. Further, the TGI in the assay with M14 melanoma was 15 µM; with MCF7 breast, 3.52 µM; with NCI-H23 lung, 23.8 µM; in the assay with PC-3 prostate it was 9.01 µM; in the assay on SF-295 CNS, 30.4 µM; in the assay with SN12C renal, 13.4 µM. In addition, the TGI in the assay on U251 CNS is 17.9 µM.

(Values after PubChem BioAssay (NCI).)
